Measurements reported in patent publication US9745305B2, “Modulators of methyl modifying enzymes, compositions and uses thereof” (Constellation Pharmaceuticals, Inc., priority 2013, dated 2017).

How the values were obtained:
[1] = target: EZH2 (Homo sapiens, UniProt Q15910); assay: EZH2 Assay (3H SAM methyl transfer, rPRC2, FlashPlate); assay type: biochemical; details: rPRC2, biotinylated oligonucleosomes, 0.2 μM 3H SAM, 2 nM EZH2
Procedure: (§1) EZH2 Assay: Assays were carried out by mixing rPRC2 together with biotinylated oligonucleosome substrates in the presence of the radio-labeled enzyme co-factor, S-adenosyl-L-methionine (^3H SAM) (Perkin Elmer) and monitoring the enzymatically mediated transfer of tritiated methyl groups from ^3H SAM to histone lysine residues. The amount of resulting tritiated methyl histone product was measured by first capturing the biotinylated oligonucleosomes in streptavidin (SAV) coated FlashPlates (Perkin Elmer), followed by a wash step to remove unreacted ^3H SAM, and then counting on a TopCount NXT 384 well plate scintillation counter (Perkin Elmer). The final assay conditions for EZH2 were as follows: 50 mM Tris Buffer pH 8.5, 1 mM DTT, 69 μM Brij-35 detergent, 5.0 mM MgCl2, 0.1 mg/mL BSA, 0.2 μM ^3H SAM, 0.2 μM biotinylated oligonucleosomes, 3.6 μM H3K27me3 peptide and 2 nM EZH2.
(§2) Compound IC50 measurements were obtained as follows: Compounds were first dissolved in 100% DMSO as 10 mM stock solutions. Ten point dose response curves were generated by dispensing varying amounts of the 10 mM compound solution in 10 wells of the 384 well plate (Echo; Labcyte), pure DMSO was then used to backfill the wells to insure all wells have the same amount of DMSO. A 12.5 μL volume of the HMT enzyme, H3K27me3 peptide and oligonucleosome substrate in assay buffer was added to each well of the assay plate using a Multidrop Combi (ThermoFisher). Compounds were pre-incubated with the enzyme for 20 min, followed by initiation of the methyltransferase reaction by addition of 12.5 μL of ^3H SAM in assay buffer (final volume=25 μL). The final concentrations of compounds ranged from a top default concentration of 80 μM down to 0.16 μM in ten 2-fold dilution steps. Reactions were carried out for 60 minutes and quenched with 20 μL per well of 1.96 mM SAH, 50 mM Tris pH 8.5, 200 mM EDTA. Stopped reactions were transferred to SAV coated Flashplates (Perkin Elmer), incubated for 120 min, washed with a plate washer, and then read on the TopCount NXT (1.0 min/well) to measure the amount of methyl histone product formed during the reaction. The amount of methyl histone product was compared with the amount of product formed in the 0% and 100% inhibition control wells allowing the calculation of % Inhibition in the presence of the individual compounds at various concentrations. IC50's were computed using a 4 parameter fit non-linear curve fitting software package (XLFIT, part of the database package, ActivityBase (IDBS)) where the four parameters were IC50, Hill slope, pre-transitional baseline (0% INH), and post-transitional baseline (100% INH); with the latter two parameters being fixed to zero and 100%, respectively, by default.

[2] = tested on: H3K27me3 mark in Hela cells expressing wild type EZH2; assay: H3K27me3 Alpha Hela Assay (AlphaLISA); assay type: cell-based; details: Homo sapiens, 72 hrs, read-out: H3K27me3_Alpha_HeLa (EC50)
Procedure: H3K27me3 Alpha Hela Assay (AlphaLISA). Ten different doses of each test compound (in a series of 3-fold dilutions) were plated in duplicate 384-well tissue culture treated plates (Catalog #781080; Greiner Bio One; Monroe, N.C.). Hela cells grown in culture were trypsinized and counted using a Countess® cell counter (Catalog # C10281; Life Technologies, Grand Island, N.Y.). Cell were diluted to 67,000 cells per mL in 10% DMEM (Catalog #10569-010 Life Technologies, Grand Island, N.Y.) and 15 μL (1,000 cells) were plated into each well using the Biotek MicroFlo™ Select Dispenser (BioTek Instruments, Inc. Vermont, USA),) of the 384-well plate. Plates were incubated at 37° C./5% CO2 for 72 hrs. One of the duplicate plates was processed for HeLa assay and the other for viability.
To the plate processed for AlphaLISA was added 5 μL per well Cell-Histone Lysis buffer (1×) (Catalog # AL009F1 Perkin Elmer; Waltham, Mass.) and the plate was incubated at RT for 30 minutes on a plate shaker with low speed (Model#4625-Q Thermo Scientific; Waltham, Mass.). Then, 10 μL per well Histone Extraction buffer (catalog # AL009F2; Perkin Elmer; Waltham, Mass.) was added and the plate further incubated at RT for 20 min on plate shaker with low speed. To each well was then added 10 μL per well of a 5× mix of anti-K27me3 acceptor beads plus Biotinylated anti-Histone H3 (C-ter) Antibody (diluted to 3 nM final) (Catalog #AL118 Perkin Elmer; Waltham, Mass.). Dilution of the acceptor beads and then anti-Histone H3 was with 1× Histone Detection buffer (Catalog # AL009F3 Perkin Elmer; Waltham, Mass.) which was produced diluted from the 10× stock provided. The plate was sealed with an aluminum plate sealer and incubated at 23° C. for 60 min. We then added 10 μL 5× solution of Streptavidin Donor beads (Catalog #6760002 Perkin Elmer; Waltham, Mass.) (20 μg/mL final in 1× Histone Detection Buffer), sealed the plate with Aluminum plate sealer and incubated at 23° C. for 30 min. The plates were then read using an EnVision-Alpha Reader (model #2104 Perkin Elmer; Waltham, Mass.).
Data from both assays was analyzed using Assay Assistant (Constellation Pharmaceuticals In-house product) and Activity Base (IDBS Ltd, Surrey, UK) template. Data files were imported to Assay Assistant and assay conditions were specified. A unique Analysis ID was created and the data files exported to Activity Base. An analysis template was created on Activity Base to measure dose-dependent inhibition of H3K27me3 mark and cell viability respectively. Readout of DMSO wells were used to normalize the data. Resulting curves were fitted using Activity base software Model 205 (IDBS Ltd, Surrey, UK). The data was checked for quality, validated and integrated in excel format using SARview (IDBS Ltd, Surrey, UK).

[3] = target: Y641N EZH2 (Homo sapiens, UniProt Q15910, Y641N); assay: Assay for Y641N EZH2 (as the EZH2 assay, H3K27Me2 oligonucleosomes as substrate); assay type: biochemical; details: Y641N EZH2 mutant, reconstituted H3K27Me2 oligonucleosomes as substrate
Procedure: as §1, §2
Assay for Y641N EZH2 was performed as above using reconstituted H3K27Me2 oligonucleosomes as substrate.

Sequence of Y641N EZH2 (Q15910 whole entry Y641N): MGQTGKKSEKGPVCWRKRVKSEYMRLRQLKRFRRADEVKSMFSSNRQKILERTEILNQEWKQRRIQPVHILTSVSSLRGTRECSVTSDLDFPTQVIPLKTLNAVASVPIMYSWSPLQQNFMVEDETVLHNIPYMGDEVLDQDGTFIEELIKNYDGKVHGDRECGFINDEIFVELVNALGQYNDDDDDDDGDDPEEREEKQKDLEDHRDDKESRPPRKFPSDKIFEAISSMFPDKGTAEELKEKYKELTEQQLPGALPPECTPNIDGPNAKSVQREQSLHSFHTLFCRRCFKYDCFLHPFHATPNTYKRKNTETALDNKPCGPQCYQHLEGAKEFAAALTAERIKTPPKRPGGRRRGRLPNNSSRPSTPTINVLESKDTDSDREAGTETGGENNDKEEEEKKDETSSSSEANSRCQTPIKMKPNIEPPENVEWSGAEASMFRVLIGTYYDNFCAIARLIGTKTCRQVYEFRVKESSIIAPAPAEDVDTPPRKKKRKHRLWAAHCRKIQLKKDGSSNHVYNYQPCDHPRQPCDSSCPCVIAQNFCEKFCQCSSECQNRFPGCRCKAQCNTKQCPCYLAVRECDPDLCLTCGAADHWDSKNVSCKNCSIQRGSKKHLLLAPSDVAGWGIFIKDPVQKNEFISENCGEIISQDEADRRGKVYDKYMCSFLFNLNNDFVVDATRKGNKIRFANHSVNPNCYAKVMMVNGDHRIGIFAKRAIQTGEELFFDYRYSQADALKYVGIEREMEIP
Sequence of Y641N EZH2 (O75530 whole entry partner): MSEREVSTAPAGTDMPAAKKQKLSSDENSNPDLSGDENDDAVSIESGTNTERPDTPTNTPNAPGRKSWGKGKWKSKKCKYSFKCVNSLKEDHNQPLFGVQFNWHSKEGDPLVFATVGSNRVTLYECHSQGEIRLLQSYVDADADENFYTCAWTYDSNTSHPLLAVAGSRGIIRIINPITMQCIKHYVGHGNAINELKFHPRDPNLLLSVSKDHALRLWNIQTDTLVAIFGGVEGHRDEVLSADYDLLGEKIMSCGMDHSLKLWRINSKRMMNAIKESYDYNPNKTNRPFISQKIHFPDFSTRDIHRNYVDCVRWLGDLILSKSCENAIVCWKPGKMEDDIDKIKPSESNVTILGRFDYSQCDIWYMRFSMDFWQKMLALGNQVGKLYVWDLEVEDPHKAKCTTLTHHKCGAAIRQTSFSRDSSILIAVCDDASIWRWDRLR
Sequence of Y641N EZH2 (Q15022 whole entry partner): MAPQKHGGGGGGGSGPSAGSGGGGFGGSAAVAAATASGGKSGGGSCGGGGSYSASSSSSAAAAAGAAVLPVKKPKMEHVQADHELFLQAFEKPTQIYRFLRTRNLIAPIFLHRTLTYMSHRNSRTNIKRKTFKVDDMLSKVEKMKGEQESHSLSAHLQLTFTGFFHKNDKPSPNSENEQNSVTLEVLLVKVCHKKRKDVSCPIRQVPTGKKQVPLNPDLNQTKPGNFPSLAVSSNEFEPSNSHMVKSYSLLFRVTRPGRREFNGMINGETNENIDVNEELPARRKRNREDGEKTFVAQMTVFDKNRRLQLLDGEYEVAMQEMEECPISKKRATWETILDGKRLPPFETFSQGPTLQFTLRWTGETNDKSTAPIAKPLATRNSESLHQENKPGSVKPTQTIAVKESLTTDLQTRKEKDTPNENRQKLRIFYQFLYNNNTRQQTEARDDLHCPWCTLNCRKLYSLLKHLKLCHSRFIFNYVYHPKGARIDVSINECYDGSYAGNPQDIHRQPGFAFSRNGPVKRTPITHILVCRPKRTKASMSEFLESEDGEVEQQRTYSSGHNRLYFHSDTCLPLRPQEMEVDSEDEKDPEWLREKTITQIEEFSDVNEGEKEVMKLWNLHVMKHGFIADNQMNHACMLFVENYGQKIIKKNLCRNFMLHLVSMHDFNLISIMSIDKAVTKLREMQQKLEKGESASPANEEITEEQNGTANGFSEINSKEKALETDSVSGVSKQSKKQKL
Sequence of EZH2 (Q15910 whole entry): as the sequence (Q15910 whole entry Y641N) above, with N641Y counted along it
Sequence of EZH2 (O75530 whole entry partner): as the sequence (O75530 whole entry partner) above
Sequence of EZH2 (Q15022 whole entry partner): as the sequence (Q15022 whole entry partner) above

IC50 [1] [nM] | EC50 [2] [nM] | IC50 [3] [nM] | Structure (SMILES)
< 100 | 400 to 2000 | – | Cc1ccc2c(C(=O)NCc3c(C)cc(C)[nH]c3=O)c(C)c(C(C)C3CCN(CC(C)(C)O)CC3)n2n1 (stereo not shown) [Compound 129, N-((4,6-dimethyl-2-oxo-1,2-dihydropyridin-3-yl)methyl)-7-(1-(1-(2-hydroxy-2-methylpropyl)piperidin-4-yl)ethyl)-2,6-dimethylpyrrolo[1,2-b]pyridazine-5-carboxamide]
< 100 | 2000 to 10000 | – | COc1cc(C)[nH]c(=O)c1CNC(=O)c1c(C)c(C(C)N(C)C)n2ncccc12 (stereo not shown) [Compound 130, 7-(1-(dimethylamino)ethyl)-N-((4-methoxy-6-methyl-2-oxo-1,2-dihydropyridin-3-yl)methyl)-6-methylpyrrolo[1,2-b]pyridazine-5-carboxamide]
< 100 | < 400 | – | COc1cc(C)[nH]c(=O)c1CNC(=O)c1c(Cl)c(C(C)C2CCOCC2)n2ncccc12 (stereo not shown) [Compound 132, 6-chloro-N-((4-methoxy-6-methyl-2-oxo-1,2-dihydropyridin-3-yl)methyl)-7-(1-(tetrahydro-2H-pyran-4-yl)ethyl)pyrrolo[1,2-b]pyridazine-5-carboxamide]
< 100 | < 400 | < 100 | COc1cc(C)[nH]c(=O)c1CNC(=O)c1c(C)c(C(C)C2CCN(CC(F)(F)F)CC2)n2ncccc12 (stereo not shown) [Compound 133, N-((4-methoxy-6-methyl-2-oxo-1,2-dihydropyridin-3-yl)methyl)-6-methyl-7-(1-(1-(2,2,2-trifluoroethyl)piperidin-4-yl)ethyl)pyrrolo[1,2-b]pyridazine-5-carboxamide]
< 100 | 400 to 2000 | – | COc1cc(C)[nH]c(=O)c1CNC(=O)c1c(C)c(C(C)C2CCN(CCC(F)(F)F)CC2)n2ncccc12 (stereo not shown) [Compound 134, N-((4-methoxy-6-methyl-2-oxo-1,2-dihydropyridin-3-yl)methyl)-6-methyl-7-(1-(1-(3,3,3-trifluoropropyl)piperidin-4-yl)ethyl)pyrrolo[1,2-b]pyridazine-5-carboxamide]
< 100 | < 400 | 1000 to 10000 | COc1cc(C)[nH]c(=O)c1CNC(=O)c1c(C)c(C(C)C2CCN(C(=O)C(C)(F)F)CC2)n2ncccc12 (stereo not shown) [Compound 135, 7-(1-(1-(2,2-difluoropropanoyl)piperidin-4-yl)ethyl)-N-((4-methoxy-6-methyl-2-oxo-1,2-dihydropyridin-3-yl)methyl)-6-methylpyrrolo[1,2-b]pyridazine-5-carboxamide]
< 100 | < 400 | – | COc1cc(C)[nH]c(=O)c1CNC(=O)c1c(C)c(C(C)C2CCN(C(=O)C(C)(C)F)CC2)n2ncccc12 (stereo not shown) [Compound 136, 7-(1-(1-(2-fluoro-2-methylpropanoyl)piperidin-4-yl)ethyl)-N-((4-methoxy-6-methyl-2-oxo-1,2-dihydropyridin-3-yl)methyl)-6-methylpyrrolo[1,2-b]pyridazine-5-carboxamide]
< 100 | < 400 | – | COc1cc(C)[nH]c(=O)c1CNC(=O)c1c(C)c(C(C)C2CCN(C(=O)CC(F)(F)F)CC2)n2ncccc12 (stereo not shown) [Compound 137, N-((4-methoxy-6-methyl-2-oxo-1,2-dihydropyridin-3-yl)methyl)-6-methyl-7-(1-(1-(3,3,3-trifluoropropanoyl)piperidin-4-yl)ethyl)pyrrolo[1,2-b]pyridazine-5-carboxamide]
< 100 | < 400 | 1000 to 10000 | COc1cc(C)[nH]c(=O)c1CNC(=O)c1c(C)c(C(C)C2CCN(C(=O)C(F)F)CC2)n2ncccc12 (stereo not shown) [Compound 138, 7-(1-(1-(2,2-difluoroacetyl)piperidin-4-yl)ethyl)-N-((4-methoxy-6-methyl-2-oxo-1,2-dihydropyridin-3-yl)methyl)-6-methylpyrrolo[1,2-b]pyridazine-5-carboxamide]
< 100 | < 400 | < 100 | COc1cc(C)[nH]c(=O)c1CNC(=O)c1c(C)c(C(C)C2CCN(C(=O)C(F)(F)F)CC2)n2ncccc12 (stereo not shown) [Compound 139, N-((4-methoxy-6-methyl-2-oxo-1,2-dihydropyridin-3-yl)methyl)-6-methyl-7-(1-(1-(2,2,2-trifluoroacetyl)piperidin-4-yl)ethyl)pyrrolo[1,2-b]pyridazine-5-carboxamide]
< 100 | < 400 | 1000 to 10000 | COc1cc(C)[nH]c(=O)c1CNC(=O)c1c(C)c(C(C)C2CCN(CC(C)(F)F)CC2)n2ccncc12 (stereo not shown) [Compound 140, 6-(1-(1-(2,2-difluoropropyl)piperidin-4-yl)ethyl)-N-((4-methoxy-6-methyl-2-oxo-1,2-dihydropyridin-3-yl)methyl)-7-methylpyrrolo[1,2-a]pyrazine-8-carboxamide]
< 100 | < 400 | < 100 | COc1cc(C)[nH]c(=O)c1CNC(=O)c1c(Cl)c(C(C)C2CCN(CC(C)(C)O)CC2)n2ncccc12 (stereo not shown) [Compound 142, 6-chloro-7-(1-(1-(2-hydroxy-2-methylpropyl)piperidin-4-yl)ethyl)-N-((4-methoxy-6-methyl-2-oxo-1,2-dihydropyridin-3-yl)methyl)pyrrolo[1,2-b]pyridazine-5-carboxamide]
< 100 | < 400 | – | COc1cc(C)[nH]c(=O)c1CNC(=O)c1c(C)c(C(C)C2CCN(CC(C)(F)F)CC2)n2ncccc12 (stereo not shown) [Compound 143, 7-(1-(1-(2,2-difluoropropyl)piperidin-4-yl)ethyl)-N-((4-methoxy-6-methyl-2-oxo-1,2-dihydropyridin-3-yl)methyl)-6-methylpyrrolo[1,2-b]pyridazine-5-carboxamide]
< 100 | < 400 | – | COc1cc(C)[nH]c(=O)c1CNC(=O)c1c(C)c(C(C)C2CCN(CC(F)F)CC2)n2ncccc12 (stereo not shown) [Compound 145, 7-(1-(1-(2,2-difluoroethyl)piperidin-4-yl)ethyl)-N-((4-methoxy-6-methyl-2-oxo-1,2-dihydropyridin-3-yl)methyl)-6-methylpyrrolo[1,2-b]pyridazine-5-carboxamide]
